Data published in publication PMC3694633, “Functional evolution of scorpion venom peptides with an inhibitor cystine knot fold” (Bioscience Reports, 2013).
Bridge positions count the residues as written; N and C are the ends. Ends that are not written are not given here. Peptide text beside a SMILES is read from it.

Legend:
[1] = biological target: T1, Drosophila Shaker channel (Shaker IR) (Drosophila melanogaster, UniProt P08510, DEL6-46); assay: two-electrode voltage-clamp, Shaker channel in Xenopus oocytes; type: cell-based; conditions: for activity on the Shaker channel after C-terminal modification: Figure 6 modified peptides at 10 μM, n=3, GP deletion: results not shown
T1 construct: expressed in transfected cells; host or cells: Xenopus oocytes injected with cRNA (clone in pBluescript, T7 promoter)
T1 sequence (P08510 with tags, fused parts or gaps DEL6-46): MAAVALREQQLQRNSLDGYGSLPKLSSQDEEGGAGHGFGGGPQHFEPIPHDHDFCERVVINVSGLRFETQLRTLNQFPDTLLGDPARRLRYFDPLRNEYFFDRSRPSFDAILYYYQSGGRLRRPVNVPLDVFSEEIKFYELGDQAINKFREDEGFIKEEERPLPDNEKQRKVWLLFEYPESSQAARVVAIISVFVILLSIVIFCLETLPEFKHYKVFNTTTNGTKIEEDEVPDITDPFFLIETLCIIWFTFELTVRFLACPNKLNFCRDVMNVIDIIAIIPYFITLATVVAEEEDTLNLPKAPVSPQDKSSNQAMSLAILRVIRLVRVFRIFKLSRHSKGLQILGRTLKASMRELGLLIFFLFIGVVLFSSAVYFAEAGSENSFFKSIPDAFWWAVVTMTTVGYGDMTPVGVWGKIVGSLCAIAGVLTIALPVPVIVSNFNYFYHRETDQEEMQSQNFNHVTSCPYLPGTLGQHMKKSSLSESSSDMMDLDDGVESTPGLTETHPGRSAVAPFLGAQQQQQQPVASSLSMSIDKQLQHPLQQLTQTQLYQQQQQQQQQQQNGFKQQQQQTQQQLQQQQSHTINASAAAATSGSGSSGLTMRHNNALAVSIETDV
Method: (§1) For the expression of Kv channels (rKv1.1–rKv1.4 and Shaker IR) and Nav channels (rNav1.1, rNav1.2, rNav1.4, rNav1.5 and mNav1.6) in Xenopus oocytes, the linearized plasmids were transcribed with the T7 or SP6 mMESSAGE-mMACHINE transcription kits (Supplementary Table S2, available at http://www.bioscirep.org/bsr/033/bsr033e047add.htm). Oocytes were digested for 1–2 h at room temperature in Ca^2+-free ND96 (in mM: NaCl, 96; KCl, 2; […]; MgCl2, 2 and Hepes, 5, adjusted to pH 7.4 with NaOH) containing 0.5 mg/ml collagenase (type I, sigma). Oocytes were injected with 0.5 ng of cRNA by NANOLITER 2000 (World Precision Instruments Inc.). The oocytes were incubated in ND96 solution supplemented with 50 mg/l gentamycin sulfate at 18°C.
Ion channel currents were recorded 1–3 days after injection with Oocyte Clamp OC-725C (Warner Instument Corp.) and Digidata 1440A (Axon CNS, Molecular Devices) controlled by pCLAMP10 software (Axon). Pipettes were pulled by P-97 FLAMING/BROWN Micropipette Puller (Sutter Instrument Co.) with resistance of 0.1–1.0 MΩ when filled with 3 M KCl. rKv1.1–rKv1.4 and Shaker currents were evoked by 250 ms depolarization to 0 mV followed by a 250 ms pulse to −50 mV, from a holding potential of −90 mV. rNav1.1, 1.2, 1.4, 1.5 and mNav1.6 currents were evoked by 100 ms depolarization to −10 mV from a holding potential of −90 mV. All data were recorded from at least three independent oocytes (n≥3) and are presented as mean±S.E.. Leak subtraction was carried out with a P/4 protocol. Data were analysed by pCLAMP 10 (Molecular Devices) and SigmaPlot 10.0 (Systat Software).

[2] = stability to non-enzymatic hydrolysis during oxidative refolding; type: physicochemical; conditions: 0.1 M Tris–HCl pH 8.0, 0.5 mM peptide, 25°C, 48 h; for chemical stability (non-enzymatic hydrolysis, Val35–Gly36 peptide bond): RP-HPLC / MALDI-TOF-MS
Method: λ-MK1 and λ-MK1a in their reduced form were chemically synthesized by ChinaPeptides Co., Ltd. and Scilight-Peptide Inc., respectively. For oxidative refolding, peptide samples were dissolved in 0.1 M Tris–HCl buffer (pH 8.0) to a final concentration of 0.5 mM and incubated at 25°C for 48 h. Peptides were purified by RP-HPLC (reversed-phase HPLC). Purity and molecular masses of peptides were determined by MALDI-TOF-MS on a Kratos PC Axima CFR plus (Shimadzu Co. LTD).

rKv1.2 = assay: two-electrode voltage-clamp, rKv1.2 in Xenopus oocytes; type: cell-based; conditions: 10 μM, 250 ms depolarization to 0 mV from −90 mV, mean±S.E. (n=3)
Method: as §1
(§2) Ion channel currents were recorded 1–3 days after injection with Oocyte Clamp OC-725C (Warner Instument Corp.) and Digidata 1440A (Axon CNS, Molecular Devices) controlled by pCLAMP10 software (Axon). […] All data were recorded from at least three independent oocytes (n≥3) and are presented as mean±S.E.. […] Data were analysed by pCLAMP 10 (Molecular Devices) and SigmaPlot 10.0 (Systat Software).

rKv1.1 = biological target: T2, rKv1.1 (Rattus norvegicus, UniProt P10499); assay: two-electrode voltage-clamp, rKv1.1 in Xenopus oocytes; type: cell-based
T2 construct: expressed in transfected cells; host or cells: Xenopus oocytes injected with cRNA (clone in pGEM, T7 promoter)
T2 sequence (P10499 whole entry): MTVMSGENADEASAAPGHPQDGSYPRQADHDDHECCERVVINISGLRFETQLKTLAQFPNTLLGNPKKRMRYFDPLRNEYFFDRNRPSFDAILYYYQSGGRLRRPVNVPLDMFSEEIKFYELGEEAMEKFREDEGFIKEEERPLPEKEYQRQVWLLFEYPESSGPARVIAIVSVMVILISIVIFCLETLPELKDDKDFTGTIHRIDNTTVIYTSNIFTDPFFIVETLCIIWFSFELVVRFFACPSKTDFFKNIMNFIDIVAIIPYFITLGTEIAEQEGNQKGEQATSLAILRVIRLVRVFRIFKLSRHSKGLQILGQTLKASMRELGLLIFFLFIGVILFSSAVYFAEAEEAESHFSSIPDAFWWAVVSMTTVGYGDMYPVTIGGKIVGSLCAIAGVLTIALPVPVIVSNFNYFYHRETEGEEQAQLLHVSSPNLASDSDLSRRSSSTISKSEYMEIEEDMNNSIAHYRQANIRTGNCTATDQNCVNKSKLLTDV
Method: as §1, §2

rKv1.4 = assay: two-electrode voltage-clamp, rKv1.4 in Xenopus oocytes; type: cell-based; conditions: 10 μM, 250 ms depolarization to 0 mV from −90 mV, mean±S.E. (n=3)
Method: as §1, §2

rKv1.3 = assay: two-electrode voltage-clamp, rKv1.3 in Xenopus oocytes; type: cell-based; conditions: 10 μM, 250 ms depolarization to 0 mV from −90 mV, mean±S.E. (n=3)
Method: as §1, §2

[3] = tested on: sarcoplasmic reticulum Ca^2+ release channels/ryanodine receptors of skeletal and cardiac muscles; conditions: cited from earlier work
Description: The ICK fold is an exceptionally stable structural motif comprising an embedded ring formed by two disulfide bridges (Cys^1–Cys^4 and Cys^2–Cys^5) and their connecting backbone segments, which is threaded by a third disulfide bridge (Cys^3–Cys^6).

Na^+ channel = tested on: Na^+ channel; design: method as in PMID 21665957; conditions: cited from earlier work
mice = conditions: intracerebroventricular inoculation; cited from earlier work
Method: It has been reported that the lethality of MCa on mice after intracerebroventricular inoculation (LD50=20 μg/mouse); however, the molecular basis remains unsolved so far.

[4] = tested on: apamin-sensitive SKCa channels; conditions: cited from earlier work
Description: This is further strengthened by the evolutionary conservation of these two residues in all the members of λ-KTx subgroup. To further investigate the functional significance of this region, we carried out C-terminal amidation, a common post-translational modification for many toxins from venoms of scorpions, spiders and cone snails. The amidated peptide (named λ-MK1a) was oxi ...

[5] = biological target: rKv1.1 (not stated (printed rKv1.1, called mammalian; r read as rat)) (UniProt P10499)
Chain of rKv1.1 (not stated (printed rKv1.1, called mammalian; r read as rat)) (P10499 whole entry): as above

[6] = biological target: rKv1.4 (not stated (printed rKv1.4, called mammalian; r read as rat)) (UniProt P15385)
Chain of rKv1.4 (not stated (printed rKv1.4, called mammalian; r read as rat)) (P15385 whole entry): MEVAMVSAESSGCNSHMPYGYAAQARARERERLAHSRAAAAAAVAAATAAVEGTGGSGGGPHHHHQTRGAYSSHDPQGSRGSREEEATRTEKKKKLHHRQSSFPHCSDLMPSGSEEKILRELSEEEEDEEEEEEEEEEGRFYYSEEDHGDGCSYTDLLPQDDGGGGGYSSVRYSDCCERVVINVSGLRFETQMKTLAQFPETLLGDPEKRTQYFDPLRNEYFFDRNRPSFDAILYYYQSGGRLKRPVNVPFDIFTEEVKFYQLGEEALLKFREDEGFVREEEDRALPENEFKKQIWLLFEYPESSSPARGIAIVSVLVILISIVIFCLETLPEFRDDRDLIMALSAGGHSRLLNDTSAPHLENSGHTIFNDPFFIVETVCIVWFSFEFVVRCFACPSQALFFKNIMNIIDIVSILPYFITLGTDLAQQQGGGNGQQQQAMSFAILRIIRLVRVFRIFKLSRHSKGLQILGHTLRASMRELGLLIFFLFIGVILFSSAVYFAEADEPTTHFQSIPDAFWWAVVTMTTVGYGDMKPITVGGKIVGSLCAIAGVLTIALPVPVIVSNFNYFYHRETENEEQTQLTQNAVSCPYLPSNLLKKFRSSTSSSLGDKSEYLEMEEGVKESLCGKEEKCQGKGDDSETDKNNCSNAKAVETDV

[7] = biological target: rKv1.1 (not stated (printed rKv1.1, called mammalian; r read as rat)) (UniProt P10499); remark: listed apart in the source
[8] = biological target: rKv1.2 (not stated (printed rKv1.1-rKv1.4, called mammalian; r read as rat)) (UniProt P63142)
Chain of rKv1.2 (not stated (printed rKv1.1-rKv1.4, called mammalian; r read as rat)) (P63142 whole entry): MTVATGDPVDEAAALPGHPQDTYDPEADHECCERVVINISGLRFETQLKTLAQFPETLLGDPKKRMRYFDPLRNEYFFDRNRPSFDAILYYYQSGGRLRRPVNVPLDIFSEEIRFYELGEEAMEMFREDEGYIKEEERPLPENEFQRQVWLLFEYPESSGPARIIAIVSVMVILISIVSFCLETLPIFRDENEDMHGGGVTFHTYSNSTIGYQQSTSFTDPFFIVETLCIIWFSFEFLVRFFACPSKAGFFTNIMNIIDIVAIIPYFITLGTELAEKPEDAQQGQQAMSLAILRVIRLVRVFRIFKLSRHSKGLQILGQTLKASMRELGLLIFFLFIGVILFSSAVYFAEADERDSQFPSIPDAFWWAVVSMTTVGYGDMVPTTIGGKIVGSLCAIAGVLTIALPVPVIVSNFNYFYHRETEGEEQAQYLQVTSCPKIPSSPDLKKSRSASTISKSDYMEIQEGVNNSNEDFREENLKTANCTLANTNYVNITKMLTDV

[9] = biological target: rKv1.3 (not stated (printed rKv1.1-rKv1.4, called mammalian; r read as rat)) (UniProt P15384)
Chain of rKv1.3 (not stated (printed rKv1.1-rKv1.4, called mammalian; r read as rat)) (P15384 whole entry): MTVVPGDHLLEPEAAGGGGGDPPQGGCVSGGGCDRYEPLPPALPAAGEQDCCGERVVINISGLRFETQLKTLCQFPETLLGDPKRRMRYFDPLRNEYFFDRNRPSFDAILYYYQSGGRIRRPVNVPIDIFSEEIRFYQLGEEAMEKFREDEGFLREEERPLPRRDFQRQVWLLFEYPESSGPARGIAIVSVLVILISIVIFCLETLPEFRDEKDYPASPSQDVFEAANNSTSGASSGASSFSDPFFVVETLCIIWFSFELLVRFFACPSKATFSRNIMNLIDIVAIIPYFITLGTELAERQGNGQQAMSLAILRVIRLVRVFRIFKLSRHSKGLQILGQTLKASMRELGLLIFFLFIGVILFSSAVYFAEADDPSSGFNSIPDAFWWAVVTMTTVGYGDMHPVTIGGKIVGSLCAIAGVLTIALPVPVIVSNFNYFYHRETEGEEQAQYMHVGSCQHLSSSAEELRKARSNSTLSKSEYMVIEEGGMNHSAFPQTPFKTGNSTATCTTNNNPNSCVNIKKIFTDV

[10] = biological target: Drosophila Shaker K+ channel (Shaker IR) (Drosophila) (UniProt P08510)
Chain of Drosophila Shaker K+ channel (Shaker IR) (Drosophila) (P08510 whole entry): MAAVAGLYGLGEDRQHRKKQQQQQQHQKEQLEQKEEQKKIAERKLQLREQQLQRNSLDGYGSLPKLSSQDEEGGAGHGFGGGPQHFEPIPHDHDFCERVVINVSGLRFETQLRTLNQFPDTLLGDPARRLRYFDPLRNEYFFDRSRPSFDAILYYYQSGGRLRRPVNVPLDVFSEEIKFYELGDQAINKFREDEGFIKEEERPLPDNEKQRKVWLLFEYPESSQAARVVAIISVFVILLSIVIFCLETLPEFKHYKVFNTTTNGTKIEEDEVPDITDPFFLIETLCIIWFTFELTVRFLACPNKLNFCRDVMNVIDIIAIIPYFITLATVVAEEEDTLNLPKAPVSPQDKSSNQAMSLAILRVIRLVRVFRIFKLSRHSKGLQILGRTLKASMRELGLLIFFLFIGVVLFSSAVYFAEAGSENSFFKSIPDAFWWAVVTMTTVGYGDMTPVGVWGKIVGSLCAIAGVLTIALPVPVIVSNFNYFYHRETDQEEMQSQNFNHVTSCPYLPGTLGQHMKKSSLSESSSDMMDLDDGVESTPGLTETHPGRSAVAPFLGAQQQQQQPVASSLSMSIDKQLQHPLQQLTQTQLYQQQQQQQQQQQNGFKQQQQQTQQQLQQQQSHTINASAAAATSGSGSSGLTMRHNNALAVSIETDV

CC[C@H](C)[C@@H]1NC(=O)[C@@H]2CSSC[C@@H]3NC(=O)[C@H](CCCCN)NC(=O)[C@H](CCCCN)NC(=O)[C@H](CC(N)=O)NC(=O)[C@H](CC(C)C)NC(=O)[C@H](CCCNC(=N)N)NC(=O)[C@H](CC(N)=O)NC(=O)[C@@H](NC(=O)CN)CSSC[C@H](NC(=O)[C@H](CSSC[C@@H](C(=O)N[C@@H](CCCNC(=N)N)C(=O)N4CCC[C@H]4C(=O)N[C@@H](CC(=O)O)C(=O)N[C@H](C(=O)NCC(=O)N4CCC[C@H]4C(=O)O)C(C)C)NC(=O)[C@H](Cc4ccc(O)cc4)NC(=O)[C@H](Cc4ccc(O)cc4)NC(=O)[C@H](CC(N)=O)NC(=O)[C@H](C(C)C)NC(=O)CNC(=O)[C@H]([C@@H](C)O)NC(=O)[C@H](CO)NC1=O)NC(=O)[C@H](CC(=O)O)NC(=O)[C@H](C)NC(=O)[C@H](CC(=O)O)NC(=O)[C@H](CO)NC(=O)[C@H](CC(N)=O)NC3=O)C(=O)N[C@@H](CCCNC(=N)N)C(=O)N[C@@H](Cc1ccc(O)cc1)C(=O)NCC(=O)N[C@@H](CCC(=O)O)C(=O)N[C@@H](CCCNC(=N)N)C(=O)N2 [λ-MK1] (H-GCNRLNKKCNSDADCCRYGERCISTGVNYYCRPDVGP-OH; disulfide 2-16, 9-22, 15-31)
reduction of Shaker channel currents ([1]; 10 μM, Xenopus oocytes, 250 ms depolarization to 0 mV from −90 mV, mean±S.E. (n=3)): 44.7±10.2%
IC50 ([1]; dose-response fitted by Hill equation, each point mean±S.E. (n=3), read-out: peptide concentration at half-maximal efficacy (IC50), Shaker channel): 12.3 ± 0.96 µM
chemical stability (non-enzymatic hydrolysis, Val35–Gly36 peptide bond) [2]: instability of a peptide bond between Val^35 and Gly^36 in an alkaline environment

λ-MK1a: the amidated peptide of λ-MK1, three disulfide bridges (GCNRLNKKCNSDADCCRYGERCISTGVNYYCRPDFGP-NH2; disulfide (positions not given here))
current reduction of rKv1.2 (rKv1.2): 25.3±3.6%
activity on the Shaker channel after C-terminal modification ([1]; Xenopus oocytes): switched the target of λ-MK1 from the Shaker channel to mammalian Kv channels
activity on the Shaker channel after C-terminal modification ([1]; Xenopus oocytes, listed as C-terminal amidation): loss of activity on the Shaker channel
current reduction of rKv1.1 (rKv1.1; 10 μM, 250 ms depolarization to 0 mV from −90 mV, mean±S.E. (n=3)): 7.7±1.8%
current reduction of rKv1.4 (rKv1.4): 35.7±4.26%
current reduction of rKv1.3 (rKv1.3): 9.0±3.2%
chemical stability (non-enzymatic hydrolysis, Val35–Gly36 peptide bond) [2]: completely inhibited the non-enzymatic hydrolysis of the peptide
refolding efficiency ([2]; RP-HPLC, relative to λ-MK1): largely improved its refolding efficiency

imperatoxin A (GDCLPHLKRCKADNDCCGKKCKRRGTNAEKRCR; UniProt P59868 1-33, looked up)
activation of Ca2+ release channels/ryanodine receptors [3]: activators of sarcoplasmic reticulum Ca^2+ release channels/ryanodine receptors of skeletal and cardiac muscles

jingzhaotoxin-III: tarantula toxin, an Na^+ channel blocker with an ICK fold (DGECGGFWWKCGRGKPPCCKGYACSKTWGWCAVEAP; also: ICK fold, disulfide pairing not given here; UniProt P62520 28-63, looked up)
Na+ channel block (Na^+ channel): Na^+ channel blocker

CC[C@H](C)[C@@H]1NC(=O)[C@H](CC(N)=O)NC(=O)[C@H]([C@@H](C)O)NC(=O)CNC(=O)[C@H](CCCNC(=N)N)NC(=O)[C@H](CCCNC(=N)N)NC(=O)[C@H](CCCCN)NC(=O)[C@@H]2CSSC[C@@H]3NC(=O)[C@H](CC(C)C)NC(=O)[C@H](CCCCN)NC(=O)[C@H](CC(C)C)NC(=O)[C@H](Cc4c[nH]cn4)NC(=O)[C@@H]4CCCN4C(=O)[C@H](CC(C)C)NC(=O)[C@@H](NC(=O)[C@H](CC(=O)O)NC(=O)CN)CSSC[C@H](NC(=O)[C@H](CSSC[C@@H](C(=O)N[C@@H](CCCNC(=N)N)C(=O)O)NC(=O)[C@H](CCCNC(=N)N)NC(=O)[C@H](CCCCN)NC(=O)[C@H](CCC(=O)O)NC1=O)NC(=O)[C@H](CC(=O)O)NC(=O)[C@H](CCCCN)NC(=O)[C@H](CC(N)=O)NC(=O)[C@H](CCC(=O)O)NC(=O)[C@H](CCCCN)NC3=O)C(=O)N[C@@H](CO)C(=O)N[C@@H](CCCCN)C(=O)N[C@@H](CCCCN)C(=O)N2 [MCa, reference compound] (H-GDCLPHLKLCKENKDCCSKKCKRRGTNIEKRCR-OH; disulfide 3-17, 10-21, 16-32)
IC50 (rKv1.1; dose-response, each point mean±S.E. (n=3), read-out: IC50, inhibition of rKv1.1 currents): 21.9 ± 1.04 µM
LD50 (mice): 20 μg/mouse

leiurotoxin I: a scorpion α-KTx (AFCNLRMCQLSCRSLGLLGKCIGDKCECVKH; ends and bridges not checked; cysteine pairing not given here; UniProt P16341 1-31, looked up)
effect of C-terminal amidation on affinity for apamin-sensitive SKCa channels [4]: increase the affinity

GDCLPHLKLCKENKDCCSKKCKRRGTNIEKRCR [maurocalcine]
IC50 of inhibition of rKv1.1 currents, dose-response, two-electrode voltage clamp in Xenopus oocytes [5]: 21.9 µM

B1: λ-MK1a (peptide)
chain: GCNRLNKKCNSDADCCRYGERCISTGVNYYCRPDFGP-NH2
modifications: disulfide (positions not given here); not fully specified (bridges); ends not checked; also: three disulfide bridges, pairing not given here
reduction of rKv1.4 currents at 10 μM peptide, two-electrode voltage clamp in Xenopus oocytes [6]: 35.7%
reduction of rKv1.1 currents at 10 μM peptide, two-electrode voltage clamp in Xenopus oocytes [7]: 7.7%
reduction of rKv1.2 currents at 10 μM peptide, two-electrode voltage clamp in Xenopus oocytes [8]: 25.3%
reduction of rKv1.3 currents at 10 μM peptide, two-electrode voltage clamp in Xenopus oocytes [9]: 9%

GCNRLNKKCNSDADCCRYGERCISTGVNYYCRPDFGP [λ-MeuKTx-1]
reduction of Shaker channel currents at 10 μM peptide, two-electrode voltage clamp in Xenopus oocytes [10]: 44.7%
